Test results reported in PMC11318023, “Discovery of VU6008677: A Structurally Distinct Tricyclic M4 Positive Allosteric Modulator with Improved CYP450 Profile” (ACS Medicinal Chemistry Letters, 2024).
Where two headings read alike, the source gives them in different places.

What was measured:
[1] = biological target: T1, human M2 (hM2) (Homo sapiens, UniProt P08172); assay: Calcium mobilization assay, hM2/Gqi5-CHO cells, with EC20 acetylcholine; format: cell-based
T1 construct: expressed in transfected cells
T1 sequence (P08172 1-466): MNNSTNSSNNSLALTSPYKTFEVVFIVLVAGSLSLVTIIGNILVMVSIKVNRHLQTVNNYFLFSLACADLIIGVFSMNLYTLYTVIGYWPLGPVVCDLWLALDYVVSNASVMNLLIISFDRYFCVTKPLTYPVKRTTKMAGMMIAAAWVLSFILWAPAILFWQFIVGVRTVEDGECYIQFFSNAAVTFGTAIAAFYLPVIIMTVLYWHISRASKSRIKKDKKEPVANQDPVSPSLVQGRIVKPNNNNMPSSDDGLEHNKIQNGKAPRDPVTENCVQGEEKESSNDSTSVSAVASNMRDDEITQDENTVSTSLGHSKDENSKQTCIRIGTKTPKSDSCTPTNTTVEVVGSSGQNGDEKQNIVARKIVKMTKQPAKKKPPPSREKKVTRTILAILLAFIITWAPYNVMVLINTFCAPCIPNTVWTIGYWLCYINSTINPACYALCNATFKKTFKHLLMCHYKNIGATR
Description: buffer remained in the cell plates. […] After establishment of a […]

[2] = Intrinsic clearance in rat liver microsomes (substrate depletion), predicted hepatic clearance; format: in vitro ADME; conditions: for CLint scaled at 1 µM: pH 7.4, rat liver microsomes; for CLhep, rat (predicted hepatic clearance): predicted from rat microsomal CLint
[3] = Intrinsic clearance in human liver microsomes (substrate depletion), predicted hepatic clearance; format: in vitro ADME; conditions: for CLint scaled at 1 µM: pH 7.4, human liver microsomes; for CLhep, human (predicted hepatic clearance): predicted from human microsomal CLint
[4] = Binding in plasma from rat, equilibrium dialysis; format: in vitro ADME; conditions: read-out: rat fu,plasma
[5] = Binding in plasma from human, equilibrium dialysis; format: in vitro ADME; conditions: human, plasma, read-out: human fu,plasma
[6] = Binding in brain homogenate from rat, equilibrium dialysis; format: in vitro ADME; conditions: rat, brain homogenate, rat brain homogenates, read-out: rat fu,brain
[7] = biological target: T2, CYP 1A2 (Homo sapiens, UniProt P05177); assay: CYP450 inhibition in pooled human liver microsomes, CYP-specific probe substrates; format: in vitro ADME; conditions: for IC50: pooled HLM, NADPH, CYP-specific probe substrate
T2 sequence (P05177 1-516): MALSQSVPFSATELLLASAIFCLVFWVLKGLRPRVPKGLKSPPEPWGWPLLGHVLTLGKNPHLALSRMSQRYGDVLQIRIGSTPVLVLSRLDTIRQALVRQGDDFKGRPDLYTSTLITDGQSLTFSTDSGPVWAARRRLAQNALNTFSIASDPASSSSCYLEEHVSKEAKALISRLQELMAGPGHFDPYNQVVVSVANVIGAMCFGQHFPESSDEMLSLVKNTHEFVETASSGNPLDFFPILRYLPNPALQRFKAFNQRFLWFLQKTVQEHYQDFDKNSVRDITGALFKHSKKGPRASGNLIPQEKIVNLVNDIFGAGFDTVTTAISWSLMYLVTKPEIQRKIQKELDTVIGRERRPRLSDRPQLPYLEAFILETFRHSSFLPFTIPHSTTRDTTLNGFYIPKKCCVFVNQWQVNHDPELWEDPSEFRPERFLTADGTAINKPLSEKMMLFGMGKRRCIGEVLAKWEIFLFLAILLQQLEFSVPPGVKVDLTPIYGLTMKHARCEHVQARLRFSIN

[8] = biological target: CYP 2C9 (Homo sapiens, UniProt P11712); assay: as above; format: in vitro ADME; conditions: pooled HLM, NADPH, CYP-specific probe substrate
[9] = biological target: CYP 2D6 (Homo sapiens, UniProt P10635); assay: as above; format: in vitro ADME; conditions: pooled HLM, NADPH, CYP-specific probe substrate
[10] = biological target: CYP 3A4 (Homo sapiens, UniProt P08684); assay: as above; format: in vitro ADME; conditions: pooled HLM, NADPH, CYP-specific probe substrate
[11] = biological target: T3, human M4 (hM4) (Homo sapiens, UniProt P08173); assay: Calcium mobilization assay, hM4/Gqi5-CHO cells, with EC20 acetylcholine (PAM); conditions: for hM4 pEC50 / EC50 / hM4 %ACh Max: hM4/Gqi5-CHO cells; for EC50: read-out: hM4 EC50; for hM4 %ACh Max: maximum response
T3 sequence (P08173 1-479): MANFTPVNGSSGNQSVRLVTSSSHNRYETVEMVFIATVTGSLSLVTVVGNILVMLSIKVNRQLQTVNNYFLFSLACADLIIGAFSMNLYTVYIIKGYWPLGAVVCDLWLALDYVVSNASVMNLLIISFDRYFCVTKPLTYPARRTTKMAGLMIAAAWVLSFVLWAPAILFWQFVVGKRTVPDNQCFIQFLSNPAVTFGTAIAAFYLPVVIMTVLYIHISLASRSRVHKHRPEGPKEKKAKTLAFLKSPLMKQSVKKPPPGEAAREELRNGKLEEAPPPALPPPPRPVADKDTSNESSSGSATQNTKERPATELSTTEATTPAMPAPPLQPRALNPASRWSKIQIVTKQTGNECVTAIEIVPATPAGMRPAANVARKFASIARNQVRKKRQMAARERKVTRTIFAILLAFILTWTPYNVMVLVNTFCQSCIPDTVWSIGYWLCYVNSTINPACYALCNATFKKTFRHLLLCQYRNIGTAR

[12] = calcium mobilization, EC20 acetylcholine
[13] = calcium mobilization, EC20 fixed concentration of acetylcholine

Chain of CYP 2C9 (P11712 whole entry): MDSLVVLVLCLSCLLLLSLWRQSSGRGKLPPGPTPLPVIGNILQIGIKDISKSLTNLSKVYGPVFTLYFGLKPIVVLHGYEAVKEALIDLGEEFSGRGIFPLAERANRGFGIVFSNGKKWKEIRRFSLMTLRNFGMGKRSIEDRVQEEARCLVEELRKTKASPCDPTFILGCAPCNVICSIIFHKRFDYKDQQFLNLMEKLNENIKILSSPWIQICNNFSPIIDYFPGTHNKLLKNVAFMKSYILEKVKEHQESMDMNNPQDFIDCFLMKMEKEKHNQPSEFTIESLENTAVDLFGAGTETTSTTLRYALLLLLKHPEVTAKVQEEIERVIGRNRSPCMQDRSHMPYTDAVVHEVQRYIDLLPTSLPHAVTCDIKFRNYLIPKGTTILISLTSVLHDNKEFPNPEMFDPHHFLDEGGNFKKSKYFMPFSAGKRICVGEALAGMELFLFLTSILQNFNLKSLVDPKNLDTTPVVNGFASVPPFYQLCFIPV
Chain of CYP 3A4 (P08684 whole entry): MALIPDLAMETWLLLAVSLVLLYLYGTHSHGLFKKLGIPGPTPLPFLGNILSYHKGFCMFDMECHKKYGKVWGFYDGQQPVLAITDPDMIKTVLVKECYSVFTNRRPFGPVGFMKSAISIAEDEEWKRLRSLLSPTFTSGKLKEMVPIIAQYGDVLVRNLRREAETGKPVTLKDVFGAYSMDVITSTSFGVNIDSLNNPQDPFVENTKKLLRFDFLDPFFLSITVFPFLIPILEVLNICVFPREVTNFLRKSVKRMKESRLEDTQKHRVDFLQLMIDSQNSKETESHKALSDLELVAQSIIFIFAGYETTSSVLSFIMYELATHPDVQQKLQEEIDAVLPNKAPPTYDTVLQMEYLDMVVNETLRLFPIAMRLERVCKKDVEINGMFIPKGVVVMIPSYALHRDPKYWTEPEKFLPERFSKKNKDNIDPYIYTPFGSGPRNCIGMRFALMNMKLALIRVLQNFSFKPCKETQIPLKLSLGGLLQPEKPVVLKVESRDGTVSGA
Chain of CYP 2D6 (P10635 whole entry): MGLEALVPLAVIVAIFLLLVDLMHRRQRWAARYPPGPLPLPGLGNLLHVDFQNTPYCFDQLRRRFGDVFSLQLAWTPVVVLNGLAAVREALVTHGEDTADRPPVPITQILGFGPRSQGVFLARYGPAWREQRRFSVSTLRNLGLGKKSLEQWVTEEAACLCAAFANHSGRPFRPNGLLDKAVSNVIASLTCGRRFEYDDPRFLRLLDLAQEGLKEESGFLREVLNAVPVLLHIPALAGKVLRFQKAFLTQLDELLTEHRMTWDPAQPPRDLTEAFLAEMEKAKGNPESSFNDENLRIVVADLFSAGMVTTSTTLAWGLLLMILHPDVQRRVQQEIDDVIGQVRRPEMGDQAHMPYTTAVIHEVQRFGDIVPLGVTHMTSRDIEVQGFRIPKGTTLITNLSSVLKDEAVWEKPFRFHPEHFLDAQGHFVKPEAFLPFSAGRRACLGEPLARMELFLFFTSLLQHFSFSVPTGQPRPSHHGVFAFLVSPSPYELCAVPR

| Compound | CLint scaled at 1 µM [2] [mL/min/kg] | CLhep, rat (predicted hepatic clearance) [2] [mL/min/kg] | CLint scaled at 1 µM [3] [mL/min/kg] | CLhep, human (predicted hepatic clearance) [3] [mL/min/kg] | fraction unbound at 6 h, 5 µM [4] | fraction unbound at 6 h, 5 µM [5] | IC50 [7] [nM] | IC50 [8] [nM] | IC50 [9] [nM] | IC50 [10] [nM] | hM4 pEC50 [11, 12] | EC50 [11, 13] [µM] | hM4 %ACh Max [11, 12] [%] | also measured |
| --- | --- | --- | --- | --- | --- | --- | --- | --- | --- | --- | --- | --- | --- | --- |
| Cc1c(Cl)cnc2sc3c(N4CC(C#N)C4)ncnc3c12 [Compound 15f] | 642 | 63 | 224 | 19 | 0.171 | 0.02 | 360 | > 30000 | > 30000 | > 30000 |  |  |  | hM2 EC50 [1]: inactive; fraction unbound at 6 h, 1 µM [6]: 0.002; fold improvement of CYP 1A2 inhibition compared with ML253 ([7]; vs ML253): 3 fold |
| Cc1nc2oc3c(N(C)C)ncnc3c2c(C)c1Cl.Cl [Compound 14e] |  |  |  |  |  |  |  |  |  |  | 5.86 | 1.4 |  |  |
| Cc1nc2sc3c(N4CC5CC5C4)nncc3c2c(C)c1Cl.Cl (stereo not drawn) [Compound 22c] |  |  |  |  |  |  |  |  |  |  | 6.29 | 0.51 | 73 |  |
| Cc1c(Cl)cnc2sc3c(N4CCCC4)ncnc3c12 [Compound 15a] |  |  |  |  |  |  |  |  |  |  | 5.22 | 6 | 45 |  |
| Cc1nc2sc3c(N4CC5(COC5)C4)ncnc3c2c(C)c1Cl.Cl [Compound 13d] |  |  |  |  |  |  |  |  |  |  | <5.00 | > 10 | 71 | EC50 ([11]; as quoted in text in μM, EC20 acetylcholine): > 10 µM |
| Cc1ncc(CNc2ncnc3c2sc2ncc(Cl)c(C)c23)cn1.Cl [Compound 15c] |  |  |  |  |  |  |  |  |  |  | 6.34 | 0.45 | 71 |  |
| Cc1c(Cl)cnc2sc3c(N4CC5(COC5)C4)ncnc3c12 [Compound 15h] | 334 | 58 | 147 | 18 | 0.031 | 0.008 | 640 | > 30000 | > 30000 | > 30000 |  |  |  | hM2 EC50 [1]: inactive; fraction unbound at 6 h, 1 µM [6]: 0.003 |
| Cc1c(Cl)cnc2sc3c(NC4CC(c5ccncc5)C4)ncnc3c12 (stereo not drawn) [Compound 15e] | 316 | 57 | 79 | 17 | ≤ 0.01 | ≤ 0.01 | 1500 | 9100 | 330 | > 30000 | 7.09 | 0.081 | 65 | hM2 EC50 [1]: inactive |
| Cc1c(Cl)cnc2sc3c(NC4(C)CC4)ncnc3c12 [Compound 15b] |  |  |  |  |  |  |  |  |  |  | 6.39 | 0.4 | 51 |  |
| Cc1nc2oc3c(NC4CC4(C)C)ncnc3c2c(C)c1Cl.Cl (stereo not drawn) [Compound 14p] | 467 | 61 | 168 | 19 | 0.038 | 0.004 | 320 | > 30000 | > 30000 | > 30000 |  |  |  | EC50 [1]: 2300 nM; hM2 % ACh Max [1]: 39%; fraction unbound at 6 h, 1 µM [6]: 0.002 |
| COCCCNc1nncc2c1sc1nc(C)c(Cl)c(C)c12.Cl [Compound 22g] |  |  |  |  |  |  |  |  |  |  | 6.72 | 0.19 | 67 |  |
| Cc1nc2sc3c(NCC4CCC4)nncc3c2c(C)c1Cl.Cl [Compound 22f] |  |  |  |  |  |  |  |  |  |  | 6.40 |  |  | fold loss (decrease) in hM4 potency ([11]; relative to the comparator analogue (13g, 13k vs 13l; 22f vs 22j)): ~5 fold |
